Test results reported in publication PMC11124387, “A Reliable Multifaceted Solution against Foodborne Viral Infections: The Case of RiLK1 Decapeptide” (Molecules, 2024).
“And” between values parts separate entries of the source, which are not always exact repeats. Equal values may be shown once. Read-outs that look alike come from different tables or passages of the source. Where a SMILES comes first, the peptide text is derived from it.

Experiments:
[1] = system: Hepatitis A virus (HAV) strain HM-175; assay: Virucidal effect of peptides on HAV (residual infectivity by TCID50 titration on Frp3 cells); format: cell-based; conditions: for Viral Titre after Treatment: titration on Frp3 cells; for Viral Titre after Treatment / LRV (log reduction value): mean ± SD, triplicate
Description: (§1) Murine norovirus strain 1 (MNV-1) was used as a surrogate for human norovirus (NoV). The virus was replicated in RAW 264.7 cells (murine macrophage cell line) cultured in Dulbecco’s modified Eagle’s medium (DMEM) supplemented with 1% glutamine, 1% non-essential amino acids, and 2% fetal bovine serum (FBS). Hepatitis A virus (HAV) strain HM-175 was replicated in Frp3 cells (non-human primate cell line derived from fetal kidney) cultured in minimum essential medium (MEM) with Earle’s salts supplemented with 1% glutamine, 2% non-essential amino acids, and 2% FBS. Both viruses were incubated in 5% CO2 at 37 °C. All cell culture media were provided by EuroClone (Milan, Italy). The viral suspensions were prepared by freeze and thaw lysis (1 cycle for MNV-1 and 3 cycles for HAV) of infected monolayers, clarified using low-speed centrifugation (800× g) to remove residual cell debris, then divided in aliquots, and stored at −80 °C until use.
(§2) Solutions 40 µM and 80 µM of each peptide of the panel (RiLK1, RiLK3, RiLK30, 1018-K6, MTP1, and AVP2) were chosen for the virucidal tests. HAV and MNV-1 were assayed at a concentration of 4.7 ± 0.2 log TCID50/mL and 4.5 ± 0.2 log TCID50/mL, respectively. The suspensions containing the peptides and viruses were incubated for 1 h at room temperature (RT,20 ± 2 °C) and 4 °C. These temperatures were chosen to simulate the use of sanitizing solutions in food production/processing environments. Residual viral infectivity was evaluated by titration (TCID50/mL) on Frp3 cells for HAV and on RAW 264.7 cells for MNV-1. Untreated HAV and MNV-1 suspensions and 40 µM and 80 µM AMP solutions, incubated at the same conditions, were used as controls. Each treatment condition was assayed in triplicate. For titration, 100 µL of serial tenfold dilutions of each sample were assayed in 24-well tissue culture plates containing 24–48 h cell monolayers and incubated for 1 h in 5% CO2 at 37 °C. After that, the wells were washed twice with 200 µL of PBS, and 500 µL of DMEM/MEM, supplemented with 2% of FBS, were was added to each well; MNV-1 and HAV incubations were carried for up to 6 days and 14 days, respectively, in 5% CO2 at 37 °C with daily visual inspection to determine the cytopathic effect. The virucidal efficacy of AMPs was estimated by comparing the titers of treated and untreated viral suspensions.
(§3) For each treatment, the average and standard deviation of the triplicate analyses were calculated. The virucidal effects of AMPs was assessed by calculating the log reduction value (LRV), i.e., the difference between the infectious titer (log-transformed) of untreated versus treated samples. The statistical significance of differences between treated and untreated samples was determined through one-way analysis of variance (ANOVA) with Bonferroni post hoc comparisons, with a significance level of p < 0.05 (GraphPad Prism v9.5.0, software San Diego, CA, USA).

[2] = pH 2; cited from earlier work
Description: In this context, to acquire important information on how the conformational properties of peptides might influence the structure–function relationships and their distinct membrane interaction profiles, the propensity of the new peptides, RiLK30 and AVP2, to adopt a defined secondary structure and to undergo conformational changes were examined by circular dichroism and fluorescence spectroscopy. These analyses were performed in the presence of a negatively charged SDS that is commonly used as a biomimetic membrane model to study the structural features of membranotropic molecules. In previous ...

[3] = system: Murine norovirus strain 1 (MNV-1); format: cell-based; conditions: for Viral Titre after Treatment: titration on RAW 264.7 cells; for Viral Titre after Treatment / LRV (log reduction value): mean ± SD, triplicate
Description: as §1, §2, §3

[4] = format: physicochemical
Description: Circular Dichroism (CD) analysis was performed by a Jasco J-810 spectropolarimeter. The samples were loaded into a quartz cuvette of 0.1 cm path length (Hellma Analytics), and the spectra were recorded in the 195–250 nm range at a scan speed of 20 nm/min, averaging 5 scans. CD experiments were carried out in 10 mM Tris-HCl buffer, pH 7.0, as a function of SDS concentrations (3, 50, and 150 mM) at a peptide concentration of 50 µM. The folding kinetic measurements of the peptides were performed after the addition of SDS (50 mM) to each sample (50 µM in 10 mM Tris-HCl, pH 7.0) up to 24 h of incubation. For thermal stability analyses, the peptides were prepared to a final concentration of 50 μM in 10 mM Tris-HCl, pH 7.0, and then they were incubated at 4 and 25 °C up to 48 h before acquiring the CD spectra in the presence of 50 mM SDS. A blank spectrum of a sample containing all components except the peptide was acquired for the baseline correction of the CD spectra of the peptide. The mean residue ellipticity ([θ], deg cm^2 dmol^−1) was obtained by the equation [θ] = 100 θ/cnl, where θ is the ellipticity (mdeg), c is the peptide concentration (mM), n is the number of residues, and l is the path length (cm).
Tryptophan (Trp) fluorescence emission spectra were recorded at 25 °C on a Shimadzu RF-6000 spectrofluorometer (Kyoto, Japan), with both excitation and emission slit widths set at 5 nm. The intrinsic Trp was excited at a wavelength of 280 nm and the emission was monitored between 300 and 400 nm. Fluorescence measurements were carried out in 10 mM Tris-HCl buffer, pH 7.0, as a function of SDS concentrations (3, 50, and 150 mM) at a peptide concentration of 50 µM. The folding kinetic experiments of AVP2 and RiLK30 were performed after the addition of SDS (50 mM) to each sample (50 µM concentration in 10 mM Tris-HCl buffer, pH 7.0) up to 24 h of incubation. The effect of temperature on peptide folding was analyzed by dissolving the peptides at a final concentration of 50 µM in 10 mM Tris-HCl buffer, pH 7.0, and incubating them at 4 and 25 °C up to 48 h. The spectra were recorded in the presence of 50 mM SDS.

[5] = HAV 4.7 ± 0.2 log TCID50/mL + peptide 80 µM, 1 h at 4 °C
[6] = HAV + peptide 40 µM, 1 h at 4 °C
[7] = HAV + peptide 40 µM, 1 h at 4 °C, untreated minus treated titre
[8] = HAV + peptide 40 µM, 1 h at RT (20 ± 2 °C)
[9] = HAV + peptide 80 µM, 1 h at 4 °C, untreated minus treated titre
[10] = HAV + peptide 80 µM, 1 h at RT (20 ± 2 °C)
[11] = maximum reduction, corresponding to the highest LRV
[12] = MNV-1 4.5 ± 0.2 log TCID50/mL + peptide 80 µM, 1 h at 4 °C
[13] = MNV-1 + peptide 40 µM, 1 h at 4 °C
[14] = MNV-1 + peptide 40 µM, 1 h at RT (20 ± 2 °C)
[15] = MNV-1 + peptide 80 µM, 1 h at 4 °C
[16] = MNV-1 + peptide 80 µM, 1 h at RT (20 ± 2 °C)

Structure (SMILES) | Viral Titre after Treatment [1, 5] [logTCID50/mL] | Viral Titre after Treatment [1, 6] [logTCID50/mL] | LRV (log reduction value) [1, 7] [logTCID50/mL] | LRV (log reduction value) [1, 8] [logTCID50/mL] | Viral Titre after Treatment [1, 8] [logTCID50/mL] | LRV (log reduction value) [1, 9] [logTCID50/mL] | LRV (log reduction value) [1, 10] [logTCID50/mL] | Viral Titre after Treatment [1, 10] [logTCID50/mL] | Viral Titre after Treatment [3, 12] [logTCID50/mL] | LRV (log reduction value) [3, 13] [logTCID50/mL] | Viral Titre after Treatment [3, 13] [logTCID50/mL] | LRV (log reduction value) [3, 14] [logTCID50/mL] | Viral Titre after Treatment [3, 14] [logTCID50/mL] | LRV (log reduction value) [3, 15] [logTCID50/mL] | LRV (log reduction value) [3, 16] [logTCID50/mL] | Viral Titre after Treatment [3, 16] [logTCID50/mL] | further results
CC[C@H](C)[C@H](NC(=O)[C@H](CCCNC(=N)N)NC(=O)[C@@H](NC(=O)[C@H](CCCCN)NC(=O)[C@@H](NC(=O)[C@@H](NC(=O)[C@H](CC(C)C)NC(=O)[C@H](CCCNC(=N)N)NC(=O)[C@@H](N)C(C)C)[C@@H](C)CC)C(C)C)C(C)C)C(=O)N[C@@H](Cc1c[nH]c2ccccc12)C(=O)N[C@@H](CCCNC(=N)N)C(=O)N[C@@H](CCCNC(=N)N)C(N)=O [1018-K6] (H-VRLIVKVRIWRR-NH2; N-terminus assumed) | 3.3 ± 0.2 | 3.4 ± 0.1 | 1.3 ± 0.3 | 1.4 ± 0.4 | 3.3 ± 0.2 | 1.4 ± 0.4 | 1.4 ± 0.4 | 3.3 ± 0.2 | 4.3 ± 0.2 | 0 ± 0.3 | 4.5 ± 0.1 | 0 ± 0.4 | 4.5 ± 0.2 | 0.2 ± 0.4 | 0.2 ± 0.4 | 4.3 ± 0.2 | decrease of HAV infectious titer [1, 11]: up to 96.7%; infectivity reduction on HAV ([1]; text summary over 40 µM and 80 µM and the two temperatures (4 °C, RT)): 1.3–1.4 log; structural stability [2]: high structural stability; virucidal activity toward MNV-1 (in words) ([3]; 40 and 80 µM, 4 °C and RT): no significant effects
CC[C@H](C)[C@H](NC(=O)[C@H](Cc1cnc[nH]1)NC(=O)[C@H](CCCCN)NC(=O)[C@@H](NC(=O)[C@@H](NC(=O)[C@H](CC(=O)O)NC(=O)[C@H](Cc1ccccc1)NC(=O)[C@H](Cc1c[nH]c2ccccc12)NC(=O)CN)C(C)C)C(C)C)C(=O)N[C@@H](C)C(=O)N[C@@H](CCCCN)C(=O)N[C@@H](CCCNC(=N)N)C(=O)N[C@@H](Cc1ccccc1)C(N)=O [AVP2, reference compound] (H-GWFDVVKHIAKRF-NH2) | – | – | – | – | – | – | – | – | – | – | – | – | – | – | – | – | thermal (conformational) stability in SDS micellar solution ([4]; pH 7): at least 48 h
CC[C@H](C)[C@H](NC(=O)[C@H](Cc1c[nH]cn1)NC(=O)[C@H](CCCCN)NC(=O)[C@@H](NC(=O)[C@@H](NC(=O)[C@H](CC(=O)O)NC(=O)[C@H](Cc1ccccc1)NC(=O)[C@H](Cc1c[nH]c2ccccc12)NC(=O)CN)C(C)C)C(C)C)C(=O)N[C@@H](C)C(=O)N[C@@H](CCCCN)C(=O)N[C@@H](CCCNC(=N)N)C(=O)N[C@@H](Cc1ccccc1)C(N)=O [AVP2, reference compound] (H-GWFDVVKHIAKRF-NH2; N-terminus assumed) | 4.3 ± 0.2 | 4.3 ± 0.2 | 0.4 ± 0.4 | 0.4 ± 0.4 | 4.3 ± 0.2 | 0.4 ± 0.4 | 0.7 ± 0.5 | 4.0 ± 0.3 | 3.6 ± 0.1 | 0.9 ± 0.3 | 3.6 ± 0.1 | 0.9 ± 0.3 | 3.6 ± 0.1 | 0.9 ± 0.3 | 1.0 ± 0.3 | 3.5 ± 0.1 | conformational rearrangement over time (CD and fluorescence spectra) ([4]; peptide 50 µM, 10 mM Tris-HCl pH 7.0, SDS 50 mM, 24 h incubation at 37 °C (legend: 25 °C)): did not appear to undergo significant changes; virucidal activity toward HAV (in words) ([1]; 40 and 80 µM, 4 °C and RT): limited reduction in infectivity; LRV against MNV-1 ([3]; at both temperatures (4 °C, RT)): 0.9 log and 1.0 log; reduction of MNV-1 infectivity [3, 11]: up to 91.3%
